From patent US20230124862A1, “BISMUTH THIOL COMPOUNDS AND COMPOSITIONS AND METHODS OF TREATING MICROBIAL CO-INFECTIONS” (Microbion Corporation, priority 2020, published 2023)
Values after ≈ are worked out from the molar mass of the structure shown. Like-named read-outs stand apart in the source and are kept apart here. Marks after values point to notes of the source that are not given here.

Key:
S. aureus ATCC 29213 [1] = conditions: CLSI established QC range; cited from earlier work
[2] = test system: vancomycin-intermediate Staphylococcus aureus (VISA); experiment: Broth microdilution MIC (Example 12); format: cell-based
Enterobacteriaceae [3] = experiment: Broth microdilution MIC (Example 11); format: cell-based, E. coli, K. pneumoniae, Enterobacter cloacae
[4] = test system: P. aeruginosa and A. baumannii; conditions: P. aeruginosa (MMX 103), QC; cited from earlier work
Escherichia coli [5] = conditions: E. coli ATCC 25922; CLSI established QC range; cited from earlier work
Escherichia coli [6] = experiment: Broth microdilution MIC (Example 12); format: cell-based
Pseudomonas aeruginosa [7] = conditions: P. aeruginosa ATCC 27853; CLSI established QC range; cited from earlier work
Pseudomonas aeruginosa [8] = experiment: Broth microdilution MIC (Example 12); format: cell-based
Enterobacteriaceae [9] = conditions: E. coli (MMX 102), QC; cited from earlier work
Acinetobacter baumannii = experiment: Broth microdilution MIC (Example 12); format: cell-based
Klebsiella pneumoniae = experiment: Broth microdilution MIC (Example 12); format: cell-based
S. aureus ATCC 29213 [10] = experiment: Broth microdilution MIC (Example 12), ATCC QC organism; conditions: ATCC QC organism (Table 102)
fungal pathogens = experiment: Antifungal activity, NIH/NIAID sponsored study; format: cell-based; conditions: 100% endpoint
Aspergillus spp. [11] = conditions: cited from earlier work
[12] = test system: C. parapsilosis ATCC 22019; conditions: C. parapsilosis ATCC 22019, CLSI established QC range, cited from earlier work
S. aureus ATCC 29213 [13] = experiment: MIC control strain; conditions: QC organism, Example 13
Candida krusei [14] = conditions: C. krusei ATCC 6258, CLSI established QC range, cited from earlier work
Aspergillus spp. [15] = experiment: Antifungal broth microdilution (Example 13); format: cell-based, A. niger, A. terreus, A. fumigatus, A. flavus
Candida krusei [16] = experiment: Antifungal broth microdilution (Example 13); format: cell-based; conditions: C. krusei ATCC 6258, comparators, single value
[17] = test system: C. parapsilosis ATCC 22019; experiment: Antifungal broth microdilution (Example 13), QC organism; format: cell-based, Candida parapsilosis; conditions: comparators, single value
E. coli ATCC 25922 = experiment: MIC control strain; conditions: QC organism, Example 13

Structure (SMILES): C[C@H]1COc2c(N3CCN(C)CC3)c(F)cc3c(=O)c(C(=O)O)cn1c23 [LVX]
- QC range of MIC (S. aureus ATCC 29213 [1]): (0.06-0.5) μg/mL
- MIC ([2]; S. aureus NRS 1 (hVISA)): 4 µg/mL (≈ 11.1 µM)
- MIC ([2]; S. aureus NRS 2): 4 µg/mL (≈ 11.1 µM)
- MIC ([2]; S. aureus NRS 3): >8 µg/mL
- MIC ([2]; S. aureus NRS 4): 4 µg/mL (≈ 11.1 µM)
- MIC ([2]; S. aureus NRS 13): 0.12 µg/mL (≈ 0.332 µM)
- MIC ([2]; S. aureus NRS 18): 4 µg/mL (≈ 11.1 µM)
- MIC ([2]; S. aureus NRS 22): 8 µg/mL (≈ 22.1 µM)
- MIC ([2]; S. aureus NRS 24 (hVISA)): >8 µg/mL
- MIC ([2]; S. aureus NRS 27): 8 µg/mL (≈ 22.1 µM)
- MIC (Enterobacteriaceae [3]; E. cloacae (MMX 5981), NDM-1, LVX-R, MEM-R, CAZ-R, GEN-R): 64 µg/mL (≈ 177 µM)
- MIC (Enterobacteriaceae [3]; E. coli (MMX 102), QC): 0.015 µg/mL (≈ 0.0415 µM)
- MIC (Enterobacteriaceae [3]; E. coli (MMX 5980), NDM-1, LVX-R, MEM-R, CAZ-R, GEN-R): 16 µg/mL (≈ 44.3 µM)
- MIC (Enterobacteriaceae [3]; E. coli (MMX 8423), ESBL, LVX-R, CAZ-R, GEN-R): 16 µg/mL (≈ 44.3 µM)
- MIC (Enterobacteriaceae [3]; E. coli (MMX 8424), ESBL, CAZ-R): 0.06 µg/mL (≈ 0.166 µM)
- MIC (Enterobacteriaceae [3]; E. coli (MMX 8425), ESBL, LVX-R, CAZ-R, GEN-R): 16 µg/mL (≈ 44.3 µM)
- MIC (Enterobacteriaceae [3]; K. pneumoniae (MMX 4622), KPC-2, MEM-R, CAZ-R): 1 µg/mL (≈ 2.77 µM)
- MIC (Enterobacteriaceae [3]; K. pneumoniae (MMX 4623), KPC-2, MEM-R, CAZ-R, GEN-R): 1 µg/mL (≈ 2.77 µM)
- MIC (Enterobacteriaceae [3]; K. pneumoniae (MMX 4653), KPC-3, LVX-R, MEM-R, CAZ-R): 64 µg/mL (≈ 177 µM)
- MIC (Enterobacteriaceae [3]; K. pneumoniae (MMX 4683), KPC-2, LVX-R, MEM-R, CAZ-R): >64 µg/mL
- MIC (Enterobacteriaceae [3]; K. pneumoniae (MMX 4684), ESBL, MEM-R): 0.03 µg/mL (≈ 0.083 µM)
- MIC (Enterobacteriaceae [3]; K. pneumoniae (MMX 4685), ESBL, LVX-R, MEM-R, CAZ-R): 32 µg/mL (≈ 88.6 µM)
- MIC (Enterobacteriaceae [3]; K. pneumoniae (MMX 4694), KPC-3, LVX-R, MEM-R, CAZ-R): 64 µg/mL (≈ 177 µM)
- MIC (Enterobacteriaceae [3]; K. pneumoniae (MMX 5979), NDM-1, LVX-R, MEM-R, CAZ-R, GEN-R): >64 µg/mL
- CLSI Quality Control Range (MIC) [4]: (0.5-4)^a
- QC range of MIC (Escherichia coli [5]): (0.008-0.06) μg/mL
- MIC (Escherichia coli [6]; E. coli ATCC 25922, ATCC QC organism (Table 102)): ≤0.008 µg/mL
- MIC (Escherichia coli [6]; E. coli ATCC 35218, ATCC QC organism (Table 102)): ≤0.008 µg/mL
- MIC (Escherichia coli [6]; E. coli ATCC 35218, ESBL): ≤0.008 µg/mL
- MIC (Escherichia coli [6]; E. coli ATCC BAA-2471, NDM): >8 µg/mL
- MIC (Escherichia coli [6]; E. coli CDC 114, ESBL/KPC): 4 µg/mL (≈ 11.1 µM)
- MIC (Escherichia coli [6]; E. coli CDC 118, ESBL/NDM): 8 µg/mL (≈ 22.1 µM)
- MIC (Escherichia coli [6]; E. coli CDC 435, NDM): >8 µg/mL
- MIC (Escherichia coli [6]; E. coli CDC 451, KPC): >8 µg/mL
- MIC (Escherichia coli [6]; E. coli CDC 503, ESBL/NDM): >8 µg/mL
- MIC (Escherichia coli [6]; E. coli MMX 5745, KPC): 8 µg/mL (≈ 22.1 µM)
- MIC (Escherichia coli [6]; E. coli MMX 5755, ESBL): 8 µg/mL (≈ 22.1 µM)
- MIC (Escherichia coli [6]; E. coli MMX 5756, ESBL): 4 µg/mL (≈ 11.1 µM)
- MIC (Escherichia coli [6]; E. coli MMX 5758, ESBL): 8 µg/mL (≈ 22.1 µM)
- QC range of MIC (Pseudomonas aeruginosa [7]): (0.5-4) μg/mL
- MIC (Pseudomonas aeruginosa [8]; P. aeruginosa ATCC 27853, ATCC QC organism (Table 102)): 0.5 µg/mL (≈ 1.38 µM)
- MIC (Pseudomonas aeruginosa [8]; P. aeruginosa CDC 230, VIM/OXA): 8 µg/mL (≈ 22.1 µM)
- MIC (Pseudomonas aeruginosa [8]; P. aeruginosa CDC 231, KPC/OXA): >8 µg/mL
- MIC (Pseudomonas aeruginosa [8]; P. aeruginosa CDC 241, IMP/OXA): 8 µg/mL (≈ 22.1 µM)
- MIC (Pseudomonas aeruginosa [8]; P. aeruginosa CDC 246, NDM/OXA): >8 µg/mL
- MIC (Pseudomonas aeruginosa [8]; P. aeruginosa CDC 250, NDM/OXA): >8 µg/mL
- MIC (Pseudomonas aeruginosa [8]; P. aeruginosa CDC 356, KPC): 0.12 µg/mL (≈ 0.332 µM)
- MIC (Pseudomonas aeruginosa [8]; P. aeruginosa CDC 439, IMP): 8 µg/mL (≈ 22.1 µM)
- MIC (Pseudomonas aeruginosa [8]; P. aeruginosa CDC 444, VIM): 8 µg/mL (≈ 22.1 µM)
- MIC (Pseudomonas aeruginosa [8]; P. aeruginosa CDC 457, VIM): >8 µg/mL
- MIC (Pseudomonas aeruginosa [8]; P. aeruginosa CDC 516, KPC/AmpC): 0.25 µg/mL (≈ 0.692 µM)
- MIC (Pseudomonas aeruginosa [8]; P. aeruginosa CDC 518, KPC/AmpC): >8 µg/mL
- CLSI Quality Control Range (MIC) (Enterobacteriaceae [9]): (0.008-0.06)^a μg/mL
- MIC (Acinetobacter baumannii; A. baumannii CDC 273, ESBL/OXA): >8 µg/mL
- MIC (Acinetobacter baumannii; A. baumannii CDC 274, ESBL/OXA): 8 µg/mL (≈ 22.1 µM)
- MIC (Acinetobacter baumannii; A. baumannii CDC 275, ESBL/OXA): 4 µg/mL (≈ 11.1 µM)
- MIC (Acinetobacter baumannii; A. baumannii CDC 277, ESBL/OXA): 8 µg/mL (≈ 22.1 µM)
- MIC (Acinetobacter baumannii; A. baumannii CDC 284, ESBL/OXA): 8 µg/mL (≈ 22.1 µM)
- MIC (Acinetobacter baumannii; A. baumannii CDC 307, OXA): 8 µg/mL (≈ 22.1 µM)
- MIC (Acinetobacter baumannii; A. baumannii CDC 308, ESBL/OXA): 4 µg/mL (≈ 11.1 µM)
- MIC (Acinetobacter baumannii; A. baumannii CDC 311, OXA): 2 µg/mL (≈ 5.53 µM)
- MIC (Acinetobacter baumannii; A. baumannii CDC 312, OXA): 2 µg/mL (≈ 5.53 µM)
- MIC (Acinetobacter baumannii; A. baumannii CDC 313, ESBL/OXA): 2 µg/mL (≈ 5.53 µM)
- MIC (Acinetobacter baumannii; A. baumannii NCTC 13304, OXA): 1 µg/mL (≈ 2.77 µM)
- MIC (Klebsiella pneumoniae; K. pneumoniae ATCC BAA-1705, ATCC QC organism (Table 102)): >8 µg/mL
- MIC (Klebsiella pneumoniae; K. pneumoniae ATCC BAA-1705, ESBL/KPC): >8 µg/mL
- MIC (Klebsiella pneumoniae; K. pneumoniae CDC 112, KPC): 4 µg/mL (≈ 11.1 µM)
- MIC (Klebsiella pneumoniae; K. pneumoniae CDC 113, ESBL/KPC): 4 µg/mL (≈ 11.1 µM)
- MIC (Klebsiella pneumoniae; K. pneumoniae CDC 115, ESBL/KPC): >8 µg/mL
- MIC (Klebsiella pneumoniae; K. pneumoniae CDC 120, ESBL/KPC): >8 µg/mL
- MIC (Klebsiella pneumoniae; K. pneumoniae CDC 126, ESBL/KPC): 0.015 µg/mL (≈ 0.0415 µM)
- MIC (Klebsiella pneumoniae; K. pneumoniae CDC 129, ESBL/KPC): >8 µg/mL
- MIC (Klebsiella pneumoniae; K. pneumoniae CDC 135, ESBL/VIM): >8 µg/mL
- MIC (Klebsiella pneumoniae; K. pneumoniae CDC 138, ESBL/NDM): >8 µg/mL
- MIC (Klebsiella pneumoniae; K. pneumoniae CDC 158, ESBL/NDM/OXA): 4 µg/mL (≈ 11.1 µM)
- MIC (Klebsiella pneumoniae; K. pneumoniae MMX 9029, ESBL): 0.12 µg/mL (≈ 0.332 µM)
- MIC (S. aureus ATCC 29213 [10]): 0.06 µg/mL (≈ 0.166 µM)

Structure (SMILES): C[C@@H](c1ncncc1F)[C@](O)(Cn1cncn1)c1ccc(F)cc1F [Voriconazole]
- MIC (fungal pathogens; Aspergillus fumigatus, read-out: Antifungal activity, MIC 100%, A. fumigatus AF1): 0.5 µg/mL (≈ 1.43 µM)
- MIC (fungal pathogens; Aspergillus fumigatus, read-out: Antifungal activity, MIC 100%, A. fumigatus AF2): 4 µg/mL (≈ 11.5 µM)
- MIC (fungal pathogens; Aspergillus fumigatus, read-out: Antifungal activity, MIC 100%, A. fumigatus AF3): 8 µg/mL (≈ 22.9 µM)
- MIC (fungal pathogens; Blastomyces dermatitidis, read-out: Antifungal activity, MIC 100%, B. dermatitidis BD1): 0.125 µg/mL (≈ 0.358 µM)
- MIC (fungal pathogens; Blastomyces dermatitidis, read-out: Antifungal activity, MIC 100%, B. dermatitidis BD2): ≤ 0.03 µg/mL
- MIC (fungal pathogens; Blastomyces dermatitidis, read-out: Antifungal activity, MIC 100%, B. dermatitidis BD3): 0.06 µg/mL (≈ 0.172 µM)
- MIC (fungal pathogens; Paecilomyces variotii, read-out: Antifungal activity, MIC 100%, P. variotii CLSI QC): 0.125 µg/mL (≈ 0.358 µM)
- QC Range 48 hr (Aspergillus spp. [11]; A. flavus ATCC 204304, CLSI established QC range): 0.5-4
- QC Range 48 hr (Aspergillus spp. [11]; A. fumigatus ATCC MYA-3626, CLSI established QC range): 0.25-1
- QC Range 24 hr ([12]; 24 hr): 0.015-0.12
- QC Range 48 hr ([12]; 48 hr): 0.03-0.25
- MIC 24 hr (S. aureus ATCC 29213 [13]): >64
- QC Range 24 hr (Candida krusei [14]; 24 hr): 0.06-0.5
- QC Range 48 hr (Candida krusei [14]; 48 hr): 0.12-1
- MIC 24 hr (Aspergillus spp. [15]; A. flavus ATCC 204304): 0.12 µg/mL (≈ 0.344 µM)
- MIC 48 hr (Aspergillus spp. [15]; A. flavus ATCC 204304): 2 µg/mL (≈ 5.73 µM)
- MIC 24 hr (Aspergillus spp. [15]; A. fumigatus ATCC MYA-3626): 0.25 µg/mL (≈ 0.716 µM)
- MIC 48 hr (Aspergillus spp. [15]; A. fumigatus ATCC MYA-3626): 0.5 µg/mL (≈ 1.43 µM)
- MIC 24 hr (Candida krusei [16]; 24 hr): 0.12 µg/mL (≈ 0.344 µM)
- MIC 48 hr (Candida krusei [16]; 48 hr): 0.5 µg/mL (≈ 1.43 µM)
- MIC 24 hr ([17]; 24 hr): 0.12 µg/mL (≈ 0.344 µM)
- MIC 48 hr ([17]; 48 hr): 0.12 µg/mL (≈ 0.344 µM)
- MIC 24 hr (E. coli ATCC 25922): >64
